Reference: patent US20230357269A1 (LES LABORATOIRES SERVIER, priority 2020, published 2023)

Biological target: human recombinant LRRK2 protein (Homo sapiens (Human), UniProt Q5S007)
Experiment: LRRK2 Kinase Activity Assay (ADP-Glo)
Assay type: biochemical
Settings: LRRK2 wt; LRRKtide peptide and ATP substrates; 1h-incubation at 37° C.
Procedure, shortened: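 Recombinant human LRRK2 acted on LRRKtide peptide and ATP for 1 h at 37 °C. ADP formed was detected by ADP-Glo luminescence (ATP depletion, then ADP-to-ATP conversion and luciferase). IC50s came from curve fits over 10 concentrations (N=2).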

Sequence of human recombinant LRRK2 protein (Q5S007 whole entry): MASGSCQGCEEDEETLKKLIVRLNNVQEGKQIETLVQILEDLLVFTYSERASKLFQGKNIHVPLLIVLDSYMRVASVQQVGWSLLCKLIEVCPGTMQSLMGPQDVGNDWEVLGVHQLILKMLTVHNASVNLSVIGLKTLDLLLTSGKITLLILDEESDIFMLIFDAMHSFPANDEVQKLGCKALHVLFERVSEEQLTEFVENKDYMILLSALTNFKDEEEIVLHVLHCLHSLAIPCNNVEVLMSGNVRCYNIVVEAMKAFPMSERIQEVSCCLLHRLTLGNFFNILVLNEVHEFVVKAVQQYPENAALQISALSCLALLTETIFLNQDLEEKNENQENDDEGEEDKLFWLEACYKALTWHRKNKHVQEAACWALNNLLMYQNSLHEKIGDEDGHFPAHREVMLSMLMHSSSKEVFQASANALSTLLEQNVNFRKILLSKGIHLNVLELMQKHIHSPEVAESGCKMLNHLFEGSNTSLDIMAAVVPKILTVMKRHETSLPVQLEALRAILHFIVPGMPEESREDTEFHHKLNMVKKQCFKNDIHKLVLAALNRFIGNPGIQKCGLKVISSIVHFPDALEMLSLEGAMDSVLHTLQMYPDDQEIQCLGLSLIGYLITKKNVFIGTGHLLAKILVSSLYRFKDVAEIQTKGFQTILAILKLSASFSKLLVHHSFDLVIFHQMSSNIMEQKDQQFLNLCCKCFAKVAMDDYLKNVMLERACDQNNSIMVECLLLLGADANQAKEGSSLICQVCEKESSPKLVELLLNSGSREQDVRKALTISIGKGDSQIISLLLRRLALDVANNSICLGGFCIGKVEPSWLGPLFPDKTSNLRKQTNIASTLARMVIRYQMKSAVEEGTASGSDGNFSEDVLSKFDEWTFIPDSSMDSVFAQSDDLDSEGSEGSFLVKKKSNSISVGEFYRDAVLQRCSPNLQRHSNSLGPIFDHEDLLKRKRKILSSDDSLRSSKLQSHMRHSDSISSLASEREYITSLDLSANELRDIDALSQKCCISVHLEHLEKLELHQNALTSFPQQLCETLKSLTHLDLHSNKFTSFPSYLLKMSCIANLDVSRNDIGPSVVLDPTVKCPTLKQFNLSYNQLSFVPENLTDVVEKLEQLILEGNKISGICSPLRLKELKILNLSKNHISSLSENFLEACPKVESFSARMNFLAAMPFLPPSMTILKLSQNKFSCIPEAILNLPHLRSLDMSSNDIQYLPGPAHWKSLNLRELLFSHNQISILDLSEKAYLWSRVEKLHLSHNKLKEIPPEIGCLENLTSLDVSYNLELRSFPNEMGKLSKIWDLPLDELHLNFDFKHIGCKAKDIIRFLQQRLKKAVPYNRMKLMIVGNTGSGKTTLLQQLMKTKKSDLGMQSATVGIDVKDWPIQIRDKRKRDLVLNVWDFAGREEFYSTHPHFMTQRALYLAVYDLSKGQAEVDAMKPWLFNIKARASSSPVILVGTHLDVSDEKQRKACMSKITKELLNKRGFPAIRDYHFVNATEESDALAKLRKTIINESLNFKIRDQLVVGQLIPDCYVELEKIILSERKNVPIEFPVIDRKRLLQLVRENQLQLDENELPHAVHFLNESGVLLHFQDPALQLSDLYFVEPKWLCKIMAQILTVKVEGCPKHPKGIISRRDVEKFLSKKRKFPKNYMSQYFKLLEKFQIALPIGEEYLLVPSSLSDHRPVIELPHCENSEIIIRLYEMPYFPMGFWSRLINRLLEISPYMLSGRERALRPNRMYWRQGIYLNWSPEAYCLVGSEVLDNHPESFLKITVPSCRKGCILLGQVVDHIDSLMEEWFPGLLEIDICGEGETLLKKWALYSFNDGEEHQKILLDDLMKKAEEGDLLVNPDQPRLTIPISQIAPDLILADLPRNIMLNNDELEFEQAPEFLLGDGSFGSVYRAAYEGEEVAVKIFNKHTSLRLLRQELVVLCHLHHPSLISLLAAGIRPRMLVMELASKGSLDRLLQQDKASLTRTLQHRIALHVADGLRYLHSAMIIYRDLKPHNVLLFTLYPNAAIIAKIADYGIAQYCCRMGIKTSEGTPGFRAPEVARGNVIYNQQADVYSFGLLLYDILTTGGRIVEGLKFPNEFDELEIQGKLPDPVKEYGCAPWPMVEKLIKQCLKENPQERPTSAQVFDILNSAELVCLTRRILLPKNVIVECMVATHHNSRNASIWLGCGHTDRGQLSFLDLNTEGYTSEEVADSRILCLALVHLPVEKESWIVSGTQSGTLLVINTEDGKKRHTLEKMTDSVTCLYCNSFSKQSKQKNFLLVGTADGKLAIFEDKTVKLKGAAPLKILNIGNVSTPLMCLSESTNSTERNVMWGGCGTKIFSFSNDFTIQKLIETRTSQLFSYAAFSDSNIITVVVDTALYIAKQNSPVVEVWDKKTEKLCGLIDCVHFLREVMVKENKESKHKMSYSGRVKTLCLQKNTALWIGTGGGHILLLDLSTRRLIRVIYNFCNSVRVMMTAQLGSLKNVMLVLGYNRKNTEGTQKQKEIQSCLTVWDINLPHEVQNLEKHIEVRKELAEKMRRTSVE

Row | Structure (SMILES) | IC50 [nM]
1 | CCC1CC2=NN1CCOC(=O)NCCCOc1ccc3[nH]nc2c3c1 (centres unmarked) [Example 119, 4-ethyl-8,14-dioxa-5,10,19,20,23-pentaazatetracyclo[13.5.2.1^2,5.0^18,21]tricosa-1(20),2(23),15,17,21-pentaen-9-one] | 10 to 100
2 | Cn1nc2cc1CCOC(=O)NCCCOc1ccc3[nH]nc-2c3c1 [Example 145, 4-methyl-8,14-dioxa-3,4,10,19,20-pentaazatetracyclo[13.5.2.1^2,5.0^18,21]tricosa-1(20),2,5(23),15(22),16,18(21)-hexaen-9-one] | 100 to 1000
3 | C[C@@H]1CCNC(=O)O[C@@H](C)c2cncc(n2)-c2n[nH]c3ccc(cc23)O1 [Example 154, (7S,13R)-7,13-dimethyl-8,14-dioxa-4,10,19,20,23-pentaazatetracyclo[13.5.2.1^2,6.0^18,21]tricosa-1(20),2(23),3,5,15(22),16,18(21)-heptaen-9-one] | 10 to 100
4 | C[C@@H]1CCNC(=O)OCCc2nc(cn2C)-c2n[nH]c3ccc(cc23)O1 [Example 161, (13R)-4,13-dimethyl-8,14-dioxa-4,10,19,20,23-pentaazatetracyclo[13.5.2.1^2,5.0^18,21]tricosa-1(20),2,5(23),15(22),16,18(21)-hexaen-9-one] | 10 to 100
5 | Cc1cc2nc(n1)COC(=O)NCC[C@@H](C)Oc1ccc3[nH]nc-2c3c1 [Example 148, (13R)-4,13-dimethyl-8,14-dioxa-5,10,19,20,23-pentaazatetracyclo[13.5.2. 1^2,6.0^18,21]tricosa-1(20),2(23),3,5,15(22),16,18(21)-heptaen-9-one] | < 10
6 | O=C1NCCCOc2ccc3[nH]nc(c3c2)-c2ccn(c2)CCO1 [Example 99, 8,14-dioxa-5,10,19,20-tetraazatetracyclo[13.5.2.1^2,5.0^18,21]tricosa-1(20),2(23),3,15(22),16,18(21)-hexaen-9-one] | < 10
7 | Cn1ccc(-c2cc3cc(c2)-c2n[nH]c4ccc(cc24)OCCCNC(=O)OC3)n1 [Example 64, 4-(1-methyl-1H-pyrazol-3-yl)-8,14-dioxa-10,19,20-triazatetracyclo[13.5.2.1^2,6.0^18,21]tricosa-1(20),2(23),3,5,15(22),16,18(21)-heptaen-9-one] | < 10
8 | O=C1NCCCOc2ccc3[nH]nc(c3c2)-c2cc(cc(N3CCOCC3=O)c2)CO1 [Example 73, 4-(3-oxomorpholin-4-yl)-8,14-dioxa-10,19,20-triazatetracyclo[13.5.2. 1^2,6.0^18,21]tricosa-1(20),2(23),3,5,15(22),16,18(21)-heptaen-9-one] | < 10
9 | CC1CCNC(=O)OCc2cc(F)cc(c2)-c2n[nH]c3ccc(cc23)O1 (centres unmarked) [Example 71, 4-fluoro-13-methyl-8,14-dioxa-10,19,20-triazatetracyclo[13.5.2.1^2,6.0^18,21]tricosa-1(20),2,4,6(23),15,17,21-heptaen-9-one] | < 10
10 | O=C1NC[C@H](F)COc2ccc3[nH]nc(c3c2)-c2cncc(n2)CO1 [Example 171, (12S)-12-fluoro-8,14-dioxa-4,10,19,20,23-pentaazatetracyclo[13.5.2.1^2,6.0^18,21]tricosa-1(20),2(23),3,5,15,17,21-heptaen-9-one] | < 10
11 | CN1CCCNC(=O)OCc2cccc(c2)-c2n[nH]c3ccc1cc23 [Example 163, 14-methyl-8-oxa-10,14,19,20-tetraazatetracyclo[13.5.2.1^2,6.0^18,21]tricosa-1(20),2(23),3,5,15,17,21-heptaen-9-one] | < 10
12 | C[C@@H]1CCNC(=O)O[C@H](C)c2cccc(n2)-c2n[nH]c3ccc(cc23)O1 [Example 136, (7R,13R)-7,13-dimethyl-8,14-dioxa-10,19,20,23-tetraazatetracyclo[13.5.2.1^2,6.0^18,21]tricosa-1(20),2,4,6(23),15,17,21-heptaen-9-one] | < 10
13 | CC1CCCN(c2cc3cc(c2)-c2n[nH]c4ccc(cc24)OCCCNC(=O)OC3)C1 (centres unmarked) [Example 58, 4-(3-methylpiperidin-1-yl)-8,14-dioxa-10,19,20-triazatetracyclo[13.5.2.1^2,6.0^18,21]tricosa-1(20),2,4,6(23),15,17,21-heptaen-9-one] | < 10
14 | O=C1NCCCOc2ccc3[nH]nc(c3c2)-c2cc(cc(N3CCOCC3)c2)CO1 [Example 16, 4-(morpholin-4-yl)-8,14-dioxa-10,19,20-triazatetracyclo[13.5.2.1^2,6.0^18,21]tricosa-1(20),2,4,6(23),15,17,21-heptaen-9-one] | < 10

More lines, now with the values ahead:

Row | IC50 [nM] | Structure (SMILES)
15 | < 10 | O=C1OCc2cncc(c2)-c2n[nH]c3ccc(cc23)OCC2CCN1C2 (centres unmarked) [Example 98, 8,15-dioxa-4,10,20,21-tetraazapentacyclo[14.5.2.1^2,6.1^10,13.0^19,22]pentacosa-1(21),2(25),3,5,16(23),17,19(22)-heptaen-9-one]
16 | < 10 | COc1ncc2cc1COC(=O)NCC[C@@H](C)Oc1ccc3[nH]nc-2c3c1 [Example 143, (13R)-5-methoxy-13-methyl-8,14-dioxa-4,10,19,20-tetraazatetracyclo[13.5.2.1^2,6.0^18,21]tricosa-1(20),2,4,6(23),15,17,21-heptaen-9-one]
17 | < 10 | O=C1NCC(F)(F)COc2ccc3[nH]nc(c3c2)-c2cnn(n2)CCO1 [Example 167, 12,12-difluoro-8,14-dioxa-4,5,10,19,20,23-hexaazatetracyclo[13.5.2.1^2,5.0^18,21]tricosa-1(20),2(23),3,15(22),16,18(21)-hexaen-9-one]
18 | < 10 | Cc1ccc2cc1COC(=O)NCCCOc1ccc3[nH]nc-2c3c1 [Example 11, 5-methyl-8,14-dioxa-10,19,20-triazatetracyclo[13.5.2.1^2,6.0^18,21]tricosa-1(20),2,4,6(23),15,17,21-heptaen-9-one]
19 | < 10 | CC1CCCN1c1cc2cc(c1)-c1n[nH]c3ccc(cc13)OCCCNC(=O)OC2 (centres unmarked) [Example 76, 4-(2-methylpyrrolidin-1-yl)-8,14-dioxa-10,19,20-triazatetracyclo[13.5.2.1^2,6.0^18,21]tricosa-1(20),2(23),3,5,15(22),16,18(21)-heptaen-9-one]
20 | < 10 | CCC1CCOc2ccc3[nH]nc(c3c2)-c2cccc(c2)COC(=O)N1 (centres unmarked) [Example 87, 11-ethyl-8,14-dioxa-10,19,20-triazatetracyclo[13.5.2.1^2,6.0^18,21]tricosa-1(20),2(23),3,5,15(22),16,18(21)-heptaen-9-one]
21 | < 10 | Cc1cc2cc(c1)-c1n[nH]c3ccc(cc13)OCCCN(C)C(=O)OC2 [Example 54, 4,10-dimethyl-8,14-dioxa-10,19,20-triazatetracyclo[13.5.2.1^2,6.0^18,21]tricosa-1(20),2,4,6(23),15,17,21-heptaen-9-one]
22 | < 10 | C[C@@H]1CCNC(=O)OCc2cccc(c2)-c2n[nH]c3ccc(cc23)O1 [Example 63, (13R)-13-methyl-8,14-dioxa-10,19,20-triazatetracyclo[13.5.2.1^2,6.0^18,21]tricosa-1(20),2(23),3,5,15(22),16,18(21)-heptaen-9-one]
23 | < 10 | C#Cc1cc2cc(c1)-c1n[nH]c3ccc(cc13)OCCCNC(=O)OC2 [Example 80, 4-ethynyl-8,14-dioxa-10,19,20-triazatetracyclo[13.5.2.1^2,6.0^18,21]tricosa-1(20),2(23),3,5,15(22),16,18(21)-heptaen-9-one]
24 | < 10 | CC1CCNC(=O)OCc2cc(F)cc(c2)-c2n[nH]c3ccc(cc23)O1 (single isomer, unassigned) [Example 101, (13R) or (13S)-4-fluoro-13-methyl-8,14-dioxa-10,19,20-triazatetracyclo[13.5.2.1^2,6.0^18,21]tricosa-1(20),2(23),3,5,15(22),16,18(21)-heptaen-9-one]
25 | < 10 | C[C@@H]1CCNC(=O)OCc2cncc(n2)-c2n[nH]c3ccc(cc23)O1 [Example 133, (13R)-13-methyl-8,14-dioxa-4,10,19,20,23-pentaazatetracyclo[13.5.2.1^2,6.0^18,21]tricosa-1(20),2,4,6(23),15,17,21-heptaen-9-one]
26 | < 10 | COCC1CCOc2ccc3[nH]nc(c3c2)-c2cccc(c2)COC(=O)N1 (centres unmarked) [Example 83, 11-(methoxymethyl)-8,14-dioxa-10,19,20-triazatetracyclo[13.5.2.1^2,6.0^18,21]tricosa-1(20),2(23),3,5,15(22),16,18(21)-heptaen-9-one]
27 | < 10 | C[C@H]1OC(=O)NCCCOc2ccc3[nH]nc(c3c2)-c2cccc1c2 [Example 68, (7R)-7-methyl-8,14-dioxa-10,19,20-triazatetracyclo[13.5.2.1^2,6.0^18,21]tricosa-1(20),2(23),3,5,15(22),16,18(21)-heptaen-9-one]
28 | < 10 | CC1Cn2cc(cn2)-c2n[nH]c3ccc(cc23)OCCCNC(=O)O1 (centres unmarked) [Example 94, 7-methyl-8,14-dioxa-4,5,10,19,20-pentaazatetracyclo[13.5.2.1^2,5.0^18,21]tricosa-1(20),2(23),3,15(22),16,18(21)-hexaen-9-one]
29 | < 10 | C[C@@H]1CCNC(=O)OCc2cncc(c2)-c2n[nH]c3ccc(cc23)O1 [Example 102, (13R)-13-methyl-8,14-dioxa-4,10,19,20-tetraazatetracyclo[13.5.2.1^2,6.0^18,21]tricosa-1(20),2(23),3,5,15(22),16,18(21)-heptaen-9-one]
30 | < 10 | O=C1NCCCOc2ccc3[nH]nc(c3c2)-c2ccc(F)c(c2)CO1 [Example 10, 5-fluoro-8,14-dioxa-10,19,20-triazatetracyclo[13.5.2.1^2,6.0^18,21]tricosa-1(20), 2,4,6(23),15,17,21-heptaen-9-one]
31 | < 10 | COc1cc2nc(c1)-c1n[nH]c3ccc(cc13)O[C@H](C)CCNC(=O)OC2 [Example 127, (13R)-4-methoxy-13-methyl-8,14-dioxa-10,19,20,23-tetraazatetracyclo[13.5.2.1^2,6.0^18,21]tricosa-1(20),2,4,6(23),15,17,21-heptaen-9-one]
32 | < 10 | O=C1NCCCOc2ccc3[nH]nc(c3c2)-c2cc(cc(N3CCC3)c2)CO1 [Example 35, 4-(azetidin-1-yl)-8,14-dioxa-10,19,20-triazatetracyclo[13.5.2.1^2,6.0^18,21]tricosa-1(20),2,4,6(23),15,17,21-heptaen-9-one]
